A word on the IC50: it is the concentration at which inhibition is half-maximal.

The test system of one test is cancer stem cells. Briefly: MTT cytotoxicity tests of 4-acetyl-antroquinonol B, summary in words. Type of test: cell-based. The following applies: lung adenocarcinoma CD133 positive, oral, GBM, breast and colorectal cancer stem cells. The source says:
(§1) The principle of cytotoxic activity test (MTT assay) is that succinate dehydrogenase in the mitochondria of a living cell can reduce MTT (3-(4,5-dimethylthiazol-2-yl)-2,5-diphenyltetrazolium bromide), and blue-violet formazan was formed under reaction with cytochrome C. Generally, the amount of formazan generated is proportional to the activity of the mitochondria and the number of living cells. After adding dimethyl sulfoxide (DMSO) to dissolve formazan, the number of living cells can be estimated by the optical density (OD) value.

For test [1], the system named is Glioblastomas multiform cancer stem cells (GBM CSC). In words: MTT cytotoxicity test, GBM cancer stem cells (subline not stated). The test is classed as cell-based. The source says:
(§2) The purpose of the present invention is to screen for the A. camphorata extracts with anti-cancer activity. MTT (3-(4,5-dimethylthiazol-2-yl)-2,5-diphenyltetrazolium bromide) assay was used to complete the cytotoxicity test. Human lung cancer stem cells (lung CSC), human Adult fibroblast-1 (AF-1), glioblastoma multiforme cancer stem cells (GBM CSC), human Adult fibroblast-2 (AF-2), head and neck squamous cell carcinoma cancer stem cells (HNSCC CSC), colorectal cancer stem cells (CRC CSC), as well as breast cancer stem cells (Breast CSC), hepatoma cancer stem cells (hepatoma CSC), leukemia cancer stem cells (leukemia CSC) and gastric cancer stem cells (Gastric CSC) are used in cell experiments of the present invention.
(§3) The principle of cytotoxic activity test (MTT assay) is that succinate dehydrogenase in the mitochondria of a living cell can reduce MTT (3-(4,5-dimethylthiazol-2-yl)-2,5-diphenyltetrazolium bromide), and blue-violet formazan was formed under reaction with cytochrome C. Generally, the amount of formazan generated is proportional to the activity of the mitochondria and the number of living cells. After adding dimethyl sulfoxide (DMSO) to dissolve formazan, the number of living cells can be estimated by the optical density (OD) value. […]
On the technique in general: Formazan colour is commonly taken as a measure of viable cells.

Test [2] has as its system breast cancer stem cells (Breast CSC). Briefly: MTT cytotoxicity test, breast cancer stem cells. Type of test: cell-based.
Excerpt: as §2, §3

In test [3] the test system is colorectal cancer stem cells (CRC CSC). Briefly: MTT cytotoxicity test, colorectal cancer stem cells. The test is classed as cell-based.
Excerpt: as §2, §3

For test [4], the system named is oral cancer stem cells (Oral CSC). In words: MTT cytotoxicity test, oral cancer stem cells. The test is classed as cell-based.
Excerpt: as §1
(§4) The definition of half maximal inhibitory concentration (IC50) is the concentration for survival rate of 50% under the reaction with drugs or compounds.

In test [5] the test system is Lung adenocarcinoma CD133 positive cancer stem cells. Briefly: MTT cytotoxicity test, lung adenocarcinoma CD133 positive cancer stem cells. Type of test: cell-based.
Excerpt: as §1, §4

For test [6], the system named is human lung cancer stem cells (Lung CSC). In words: MTT cytotoxicity test, lung cancer stem cells. Type of test: cell-based.
Excerpt: as §2, §3

Another test relates to lung cancer stem cells. Briefly: Co-administration with chemotherapy drugs, lung cancer stem cells. Type of test: cell-based, human.
Excerpt: as §4
(§5) Cisplatin: cis-diammineplatinum(II) dichloride (Sigma-Aldrich, USA)
(§6) Taxol: Paclitaxel (Sigma-Aldrich, USA)
(§7) According to the pretested half maximal inhibitory concentration (IC50) of D1˜D5, different cancer stem cells were used to test the cytotoxic concentration for (1) the co-administration of A. camphorata extracts with the chemotherapy drug, Cisplatin; (2) the co-administration of A. camphorata extracts with the chemotherapy drug, Taxol.

For test [7], the system named is colorectal cancer stem cells. Briefly: Co-administration with chemotherapy drugs, colorectal cancer stem cells. The test is classed as cell-based.
Excerpt: as §4, §5, §6, §7

Test [8] has as its system Hepatoma cancer stem cells. In words: Co-administration with chemotherapy drugs, hepatoma cancer stem cells. Type of test: cell-based.
Excerpt: as §4, §5, §6, §7

Another test deals with breast cancer stem cells. Briefly: Co-administration with chemotherapy drugs, breast cancer stem cells. Type of test: cell-based.
Excerpt: as §4, §5, §6, §7

Test [9] has as its system Glioblastomas multiform cancer stem cells. In words: Co-administration with chemotherapy drugs, GBM cancer stem cells. The test is classed as cell-based.
Excerpt: as §4, §5, §6, §7

In test [10] the test system is Head and neck squamous cell carcinoma cancer stem cells. Briefly: Co-administration with chemotherapy drugs, HNSCC cancer stem cells. Type of test: cell-based.
Excerpt: as §4, §5, §6, §7

`COC1=C(OC)C(OC(C)=O)C(C/C=C(\C)CCC2(C)CCC(=O)O2)C(C)C1=O` (stereo not shown) [4-acetyl-antroquinonol B]: the “inhibitory effects on the growth of cancer stem cells (in words)” value in the test with cancer stem cells is on record as “effective inhibitory effects on the growth of cancer stem cells”. Moreover, the “half maximal inhibitory concentration (IC50) of 4-acetyl-antroquinonol B” value was 18.2 µg/mL in test [1]; 20.77 µg/mL in [2]; 9.72 µg/mL in [3]; 14.37 µg/mL in test [4]; 16.4 µg/mL in test [5]; 12.37 µg/mL in [6].
For `N.N.[Cl][Pt][Cl]` [Cisplatin, cis-diammineplatinum(II) dichloride], the “Cisplatin IC50” value stood at 17.98 µg/mL with lung cancer stem cells; 42.83 µg/mL in test [7]; 40.15 µg/mL in test [8]; 20.23 µg/mL with breast cancer stem cells; 23.33 µg/mL in test [9]; 18.87 µg/mL in test [10].
With `CC(=O)O[C@H]1C(=O)[C@@]2(C)[C@H]([C@H](OC(=O)c3ccccc3)[C@]3(O)C[C@H](OC(=O)[C@H](O)[C@@H](NC(=O)c4ccccc4)c4ccccc4)C(C)=C1C3(C)C)[C@]1(OC(C)=O)CO[C@@H]1C[C@@H]2O` [Taxol, Paclitaxel], the IC50 with lung cancer stem cells (Homo sapiens, read-out: Taxol IC50) was 0.0137 µg/mL; in [7] (read-out: Taxol IC50) it was 0.0317 µg/mL; in [8] (read-out: Taxol IC50), 0.0335 µg/mL; in the test with breast cancer stem cells (read-out: Taxol IC50), 0.00983 µg/mL; in test [9] (read-out: Taxol IC50) it was 0.0207 µg/mL; in test [10] (read-out: Taxol IC50), 0.0102 µg/mL.

For the origin of these results see US20130089627A1, “METHOD FOR TREATING A CANCER CAUSED BY CANCER STEM CELLS” (NEW BELLUS ENTERPRISES CO., LTD., priority 2011, published 2013).
